Data on 2 molecules can be found in patent publication US6548480B1, “Phosphonic acid derivatives with metallopeptidase inhibitory activity” (Zambon Group S.p.A., priority 1995, dated 2003).

As usually defined, the IC50 is the point on the concentration scale where inhibition reaches its midpoint. For orientation: inhibition means how much of the control response was suppressed.

Test [1] deals with T1, NEP (Rattus norvegicus, UniProt P07861).
T1 sequence (P07861 1-750): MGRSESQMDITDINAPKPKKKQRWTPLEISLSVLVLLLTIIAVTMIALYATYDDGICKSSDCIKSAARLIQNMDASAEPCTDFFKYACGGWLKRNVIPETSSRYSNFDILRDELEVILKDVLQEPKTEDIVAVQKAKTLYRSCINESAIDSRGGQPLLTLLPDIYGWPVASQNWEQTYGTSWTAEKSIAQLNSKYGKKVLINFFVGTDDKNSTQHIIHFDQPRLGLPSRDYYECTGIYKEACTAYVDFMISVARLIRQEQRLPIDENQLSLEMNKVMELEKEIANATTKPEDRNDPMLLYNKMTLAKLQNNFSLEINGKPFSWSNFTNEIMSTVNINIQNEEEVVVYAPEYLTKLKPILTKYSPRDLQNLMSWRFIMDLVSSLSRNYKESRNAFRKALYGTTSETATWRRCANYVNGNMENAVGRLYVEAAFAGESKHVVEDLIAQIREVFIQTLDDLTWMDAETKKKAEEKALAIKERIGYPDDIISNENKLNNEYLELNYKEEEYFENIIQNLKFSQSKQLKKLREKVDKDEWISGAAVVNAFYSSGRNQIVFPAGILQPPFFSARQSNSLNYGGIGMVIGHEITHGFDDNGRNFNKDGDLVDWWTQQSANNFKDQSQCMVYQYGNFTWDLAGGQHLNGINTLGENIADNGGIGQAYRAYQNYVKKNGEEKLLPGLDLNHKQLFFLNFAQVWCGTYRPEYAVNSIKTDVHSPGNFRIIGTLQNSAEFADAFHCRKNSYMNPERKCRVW
Put plainly: In vitro NEP-inhibitory activity in rat kidney cortex membranes ([3H][Leu5]-enkephaline hydrolysis). It counts as biochemical. Set-up: from tissue; host or cells: kidney cortex membranes of male Sprague-Dawley rats. Conditions: [3H][Leu5]-enkephaline 15 nM, 30° C., compounds of formula I tested as lithium salts. Here is the method:
The NEP-inhibitory activity was evaluated in rat kidney cortex membranes prepared according to the procedure described by T. Maeda et al. in Biochim Biophys.
Cortex was carefully dissected, finely minced and suspended in a homogenization buffer (10 mM sodium phosphate pH 7.4 containing 1 mM MgCl2, 30 mM NaCl, 0.02% NaN3) 1:15 weight/volume.
The tissue was then homogenized for 30 seconds using an Ultra-Turrax homogenizer.
The membranes were collected from the buffer/sucrose interface, washed twice with 50 mM TRIS/HCl buffer (pH 7.4) and resuspended into the same buffer for storage.
The NEP-inhibitory activity was evaluated according to the method described by C.
Incubation (20 minutes at 30° C.) was stopped by adding HCl 0.1M (100 μl).
The percentage of inhibition of the metabolite formation in the membrane preparations treated with the compounds of formula I and with the comparative compounds with respect to the untreated membrane preparations was expressed as IC50 (nM) value.

Test [2] has as its target T2, ACE (Oryctolagus cuniculus, UniProt P12822).
T2 construct: ACE (250 mU/ml purified by lung rabbit, EC 3.4.15.1 SIGMA); purchased SIGMA; host or cells: rabbit lung
T2 sequence (P12822 34-1310): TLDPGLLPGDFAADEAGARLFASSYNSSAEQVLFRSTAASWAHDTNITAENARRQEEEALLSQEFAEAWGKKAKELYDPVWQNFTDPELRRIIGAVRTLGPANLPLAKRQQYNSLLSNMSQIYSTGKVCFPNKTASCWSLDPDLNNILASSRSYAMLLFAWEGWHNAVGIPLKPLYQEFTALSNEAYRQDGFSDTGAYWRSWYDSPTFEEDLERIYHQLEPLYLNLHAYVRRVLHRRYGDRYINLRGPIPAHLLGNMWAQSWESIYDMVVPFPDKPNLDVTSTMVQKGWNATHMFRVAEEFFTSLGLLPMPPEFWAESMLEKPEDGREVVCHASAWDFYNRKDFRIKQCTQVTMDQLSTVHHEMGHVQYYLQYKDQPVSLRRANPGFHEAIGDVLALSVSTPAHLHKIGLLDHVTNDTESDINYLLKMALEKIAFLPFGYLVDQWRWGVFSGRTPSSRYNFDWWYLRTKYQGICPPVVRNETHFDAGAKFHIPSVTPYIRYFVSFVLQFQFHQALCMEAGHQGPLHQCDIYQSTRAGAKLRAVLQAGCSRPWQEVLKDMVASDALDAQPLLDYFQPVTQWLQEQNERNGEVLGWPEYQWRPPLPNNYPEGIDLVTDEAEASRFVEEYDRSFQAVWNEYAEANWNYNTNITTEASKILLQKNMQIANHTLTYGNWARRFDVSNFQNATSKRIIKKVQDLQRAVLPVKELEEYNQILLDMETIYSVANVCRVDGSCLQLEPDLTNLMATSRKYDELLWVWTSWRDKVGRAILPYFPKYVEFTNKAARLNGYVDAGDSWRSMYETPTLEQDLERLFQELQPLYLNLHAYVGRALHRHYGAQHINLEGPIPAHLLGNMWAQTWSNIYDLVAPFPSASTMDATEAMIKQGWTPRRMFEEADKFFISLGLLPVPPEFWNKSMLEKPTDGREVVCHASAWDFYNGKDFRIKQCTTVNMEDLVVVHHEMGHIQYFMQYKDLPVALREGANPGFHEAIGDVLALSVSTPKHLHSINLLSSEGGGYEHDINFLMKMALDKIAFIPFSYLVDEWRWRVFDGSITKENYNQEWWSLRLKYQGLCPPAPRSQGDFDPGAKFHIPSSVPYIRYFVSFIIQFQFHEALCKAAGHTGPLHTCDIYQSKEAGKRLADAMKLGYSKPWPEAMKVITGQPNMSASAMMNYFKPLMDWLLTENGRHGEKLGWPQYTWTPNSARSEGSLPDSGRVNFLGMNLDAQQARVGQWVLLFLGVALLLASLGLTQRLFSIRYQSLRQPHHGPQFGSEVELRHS
Kind of test: In vitro ACE-inhibitory activity (FAPGG substrate, spectrophotometric). Conditions: ACE purified by lung rabbit, FAPGG 0.8 mM, 37° C.; compounds of formula I tested as lithium salts. It counts as biochemical. As for the experimental part:
The reaction was started by adding furylacryloylphenylalanylglycylglycine 0.8 mM (FAPGG-SIGMA).
Contemporaneously, by using a Beckman DU-50 spectrophotometer provided with a program for calculating delta A/minutes and regression coefficients of the enzyme kinetics curves, the absorbance at 340 nm was recorded in continuo for 5 minutes.

Test [3] concerns the target T3, ACE (Rattus norvegicus, UniProt P47820).
T3 construct: After the removal of the lungs from SHR, the lung tissue was homogenized; from tissue; host or cells: lung homogenate of spontaneously hypertensive rats (SHR) dosed i.v
T3 sequence (P47820 36-1313): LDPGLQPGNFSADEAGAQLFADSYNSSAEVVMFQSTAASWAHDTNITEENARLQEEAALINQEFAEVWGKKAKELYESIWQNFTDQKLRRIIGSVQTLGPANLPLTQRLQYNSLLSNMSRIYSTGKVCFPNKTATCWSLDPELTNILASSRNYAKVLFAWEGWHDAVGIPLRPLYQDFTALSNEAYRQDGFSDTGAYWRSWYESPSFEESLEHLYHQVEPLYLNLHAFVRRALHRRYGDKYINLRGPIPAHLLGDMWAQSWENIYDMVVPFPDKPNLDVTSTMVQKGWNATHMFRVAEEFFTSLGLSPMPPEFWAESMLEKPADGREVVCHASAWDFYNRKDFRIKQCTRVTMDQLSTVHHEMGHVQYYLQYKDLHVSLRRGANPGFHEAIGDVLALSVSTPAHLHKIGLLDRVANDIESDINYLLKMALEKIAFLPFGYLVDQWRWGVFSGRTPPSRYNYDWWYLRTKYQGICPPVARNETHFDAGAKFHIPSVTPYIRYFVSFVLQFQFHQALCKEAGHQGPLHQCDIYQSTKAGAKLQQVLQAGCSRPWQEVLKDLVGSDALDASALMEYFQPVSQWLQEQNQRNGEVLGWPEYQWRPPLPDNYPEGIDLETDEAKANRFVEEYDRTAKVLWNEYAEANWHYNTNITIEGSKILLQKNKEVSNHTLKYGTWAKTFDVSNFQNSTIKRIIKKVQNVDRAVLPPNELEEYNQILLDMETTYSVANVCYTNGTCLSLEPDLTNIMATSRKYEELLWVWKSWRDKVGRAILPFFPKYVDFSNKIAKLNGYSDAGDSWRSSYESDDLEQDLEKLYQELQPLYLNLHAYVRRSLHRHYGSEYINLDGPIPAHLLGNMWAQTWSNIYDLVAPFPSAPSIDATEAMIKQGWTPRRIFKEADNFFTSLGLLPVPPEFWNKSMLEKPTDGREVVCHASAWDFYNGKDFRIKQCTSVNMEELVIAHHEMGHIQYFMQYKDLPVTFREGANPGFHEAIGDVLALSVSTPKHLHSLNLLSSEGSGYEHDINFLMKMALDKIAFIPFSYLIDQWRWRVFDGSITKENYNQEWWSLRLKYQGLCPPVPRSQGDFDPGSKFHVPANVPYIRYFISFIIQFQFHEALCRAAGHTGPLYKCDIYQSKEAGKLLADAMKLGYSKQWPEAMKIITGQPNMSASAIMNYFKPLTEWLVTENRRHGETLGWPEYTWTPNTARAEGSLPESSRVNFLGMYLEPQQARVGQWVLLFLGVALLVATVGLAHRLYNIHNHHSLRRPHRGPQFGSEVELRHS
Put plainly: Ex vivo ACE-inhibitory activity in lungs of SHR after i.v. injection. Set-up: species or system spontaneously hypertensive rats (SHR). The following applies: iv, 5 minutes after i.v. injection, 21 μmoles/kg, read-out: ACE-inhibitory activity (lung) % of inhibition. As for the experimental part:
After the removal of the lungs from SHR, the lung tissue was homogenized and incubated for 2 hours at 37° C. in the presence of [^3H]Hyp-Gly-Gly, as a substrate.
The reaction was stopped by adding hydrochloric acid.
The released radio-labelled hyppuric acid was extracted with ethyl acetate and counted by liquid scintillation spectrometry, according to conventional methods.

In test [4] the target is T1, NEP. Kind of test: Ex vivo NEP-inhibitory activity in kidneys of SHR after i.v. injection. Conditions: iv, 5 minutes after i.v. injection, 21 μmoles/kg, read-out: NEP-inhibitory activity (kidney) % of inhibition. Set-up: After the removal of the kidneys from SHR, the renal tissue was homogenized; from tissue; host or cells: kidney homogenate of spontaneously hypertensive rats (SHR) dosed i.v; species or system spontaneously hypertensive rats (SHR). As for the experimental part: After the removal of the kidneys from SHR, the renal tissue was homogenized and incubated for 15 minutes at 37° C. in the presence of Glutaryl-Ala-Ala-Phe-2-naphthyliamide (GAAP), as a substrate, and aminopeptidase M at pH 7.6. The reaction was stopped by adding an aqueous solution at 10% of trichloroacetic acid.
The released 2-naphthylamine was determined by adding fast garnet dye (2 ml).

Molecules are shown by their SMILES. Counter-ions that a name gives are not always drawn.

Regarding `C[C@H](CS)C(=O)N1CCC[C@H]1C(=O)O` [Captopril], the “NEP-inhibitory activity IC50 (nM)” value on NEP [1] is recorded as “not active”.

For `O=C(O)[C@H](Cc1ccccc1)NC(=O)[C@H](Cc1ccccc1)NP(=O)(O)CCCCc1ccccc1` [Compound R-1, N-[N′-(4-phenyl)butylphosphonyl-L-phenlalanyl]-L-phenylalanine dilithium salt], the IC50 was determined as 20 nM on ACE [2] and 5.5 nM at NEP [1]. Moreover, the inhibition at 21 µmol/kg on ACE [3] is 25%; on NEP [4], 20%.
